# Results: the Kinase Knowledgebase extract (Sharma et al. 2016)
# pIC50: −log10 of the molar value.
# Target: EGFR (human) (UniProt P00533)
# Assay: not given
# Chain of EGFR (human) (P00533 whole entry, looked up): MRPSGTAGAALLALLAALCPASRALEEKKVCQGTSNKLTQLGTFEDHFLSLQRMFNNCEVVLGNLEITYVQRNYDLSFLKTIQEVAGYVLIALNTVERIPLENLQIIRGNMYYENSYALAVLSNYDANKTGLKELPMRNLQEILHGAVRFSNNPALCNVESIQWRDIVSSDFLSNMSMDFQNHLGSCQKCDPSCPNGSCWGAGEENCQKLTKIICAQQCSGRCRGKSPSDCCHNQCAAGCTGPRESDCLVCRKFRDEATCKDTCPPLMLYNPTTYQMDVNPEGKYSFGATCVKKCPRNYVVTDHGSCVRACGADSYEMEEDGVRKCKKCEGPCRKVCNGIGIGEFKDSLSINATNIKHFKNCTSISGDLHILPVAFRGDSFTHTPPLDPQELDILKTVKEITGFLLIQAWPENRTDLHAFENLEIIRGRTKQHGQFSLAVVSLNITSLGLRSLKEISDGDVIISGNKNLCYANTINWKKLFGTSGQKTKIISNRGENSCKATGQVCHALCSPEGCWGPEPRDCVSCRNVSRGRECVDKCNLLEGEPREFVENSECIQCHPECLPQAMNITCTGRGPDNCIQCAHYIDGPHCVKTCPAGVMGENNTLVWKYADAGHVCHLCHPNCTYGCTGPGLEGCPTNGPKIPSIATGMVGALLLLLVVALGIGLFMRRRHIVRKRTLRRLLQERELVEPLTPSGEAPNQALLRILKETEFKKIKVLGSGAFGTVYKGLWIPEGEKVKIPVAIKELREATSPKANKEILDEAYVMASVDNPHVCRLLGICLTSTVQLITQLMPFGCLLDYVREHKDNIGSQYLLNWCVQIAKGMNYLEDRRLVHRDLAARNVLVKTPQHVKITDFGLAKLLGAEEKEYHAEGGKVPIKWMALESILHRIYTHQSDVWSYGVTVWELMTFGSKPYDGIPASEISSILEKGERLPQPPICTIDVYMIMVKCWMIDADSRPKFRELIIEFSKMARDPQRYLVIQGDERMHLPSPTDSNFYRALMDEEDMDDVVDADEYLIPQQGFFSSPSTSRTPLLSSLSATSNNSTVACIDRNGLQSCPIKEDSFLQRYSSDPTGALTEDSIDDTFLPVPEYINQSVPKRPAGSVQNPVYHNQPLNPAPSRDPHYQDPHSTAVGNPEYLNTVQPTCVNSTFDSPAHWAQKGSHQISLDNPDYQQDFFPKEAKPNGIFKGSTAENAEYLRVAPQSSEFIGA
row,Structure (SMILES),pIC50
1,O=C(CCCCCOc1ccc2ncnc(Nc3ccc(F)c(Cl)c3)c2c1)NO,≥ 7.00
2,C#Cc1cccc(Nc2ncnc3ccc(OCC(=O)NO)cc23)c1,≥ 7.00
3,COc1cc2ncnc(Nc3ccc(F)c(Cl)c3)c2cc1OCCCCC(=O)NO,≥ 7.00
4,O=C(CCCCCNCc1ccc(-c2ccc3ncnc(Nc4ccc(OCc5cccc(F)c5)c(Cl)c4)c3c2)o1)NO,≥ 7.00
5,O=C(CCOc1ccc2ncnc(Nc3ccc(F)c(Cl)c3)c2c1)NO,≥ 7.00
6,O=C(CCCCOc1ccc2ncnc(Nc3ccc(F)c(Cl)c3)c2c1)NO,≥ 7.00
7,C#Cc1cccc(Nc2ncnc3cc(OCCCCCCC(=O)NO)c(OCCOC)cc23)c1,≥ 7.00
8,COc1cc2ncnc(Nc3ccc(F)c(Cl)c3)c2cc1SCCCCC(=O)NO,≥ 7.00
9,C#Cc1cccc(Nc2ncnc3cc(OC)c(OCC(=O)NO)cc23)c1,≥ 7.00
10,C#Cc1cccc(Nc2ncnc3cc(OC)c(NC(=O)CCCC(=O)NO)cc23)c1,≥ 7.00
11,O=C(CCCCCCOc1ccc2ncnc(Nc3ccc(F)c(Cl)c3)c2c1)NO,≥ 7.00
12,C#Cc1cc(Nc2ncnc3cc(OC)c(OCCCCCCC(=O)NO)cc23)ccc1O,≥ 7.00
13,COc1cc2ncnc(Nc3ccc(OCc4cccc(F)c4)c(Cl)c3)c2cc1OCCCCCCC(=O)NO,≥ 7.00
14,COCCOc1cc2c(Nc3ccc(F)c(Cl)c3)ncnc2cc1OCCCCCCC(=O)NO,≥ 7.00
15,COc1cc2ncnc(Nc3ccc(F)c(Cl)c3)c2cc1CCCCCC(=O)NO,≥ 7.00
16,C#Cc1cccc(Nc2ncnc3cc(OC)c(OCCC(=O)NO)cc23)c1,≥ 7.00
17,C#Cc1cccc(Nc2ncnc3ccc(OCCCCC(=O)NO)cc23)c1,≥ 7.00
18,COc1cc2ncnc(Nc3ccc(F)c(Cl)c3)c2cc1OCCCC(=O)NO,≥ 7.00
19,COc1cc2ncnc(Nc3ccc(F)c(Cl)c3)c2cc1OCC(=O)NO,≥ 7.00
20,COCCOc1cc2ncnc(Nc3ccc(F)c(Cl)c3)c2cc1OCCCCCCC(=O)NO,≥ 7.00
21,C#Cc1cccc(Nc2ncnc3cc(OCCCCCCC(=O)NO)c(OC)cc23)c1,≥ 7.00
22,COc1cc2ncnc(Nc3ccc(F)c(Cl)c3)c2cc1OCCC(=O)NO,≥ 7.00
23,O=C(COc1ccc2ncnc(Nc3ccc(F)c(Cl)c3)c2c1)NO,≥ 7.00
24,O=C(CCCCCCOc1ccc2ncnc(Nc3ccc(OCc4cccc(F)c4)c(Cl)c3)c2c1)NO,≥ 7.00
25,C#Cc1cccc(Nc2ncnc3cc(OCCOC)c(OCCCCCCC(=O)NO)cc23)c1,≥ 7.00
26,C#Cc1cccc(Nc2ncnc3cc(OC)c(OCCCCCC(=O)NO)cc23)c1,≥ 7.00
27,C#Cc1cccc(Nc2ncnc3cc(OC)c(OCCCC(=O)NO)cc23)c1,≥ 7.00
28,COc1cc2ncnc(Nc3ccc(F)c(Cl)c3)c2cc1OCCOc1ccc(C(=O)NO)cc1,≥ 7.00
29,COc1cc2ncnc(Nc3ccc(F)c(Cl)c3)c2cc1OCCCCCC(=O)NO,≥ 7.00

# Next, values leading:
row,pIC50,Structure (SMILES)
1,≥ 7.00,C#Cc1cccc(Nc2ncnc3cc(OC)c(NC(=O)CCCCC(=O)NO)cc23)c1
2,≥ 7.00,COCCOc1cc2ncnc(Nc3ccc(F)c(Cl)c3)c2cc1NC(=O)CCCCCCC(=O)NO
3,≥ 7.00,COCCOc1cc2ncnc(Nc3ccc(F)c(Cl)c3)c2cc1NC(=O)CCCC(=O)NO
4,≥ 7.00,COCCOc1cc2ncnc(Nc3ccc(F)c(Cl)c3)c2cc1NC(=O)CCCCC(=O)NO
5,≥ 7.00,COc1cc2ncnc(Nc3ccc(F)c(Cl)c3)c2cc1NC(=O)CCCCCCC(=O)NO
6,≥ 7.00,COc1cc2ncnc(Nc3ccc(F)c(Cl)c3)c2cc1SCCCCCCC(=O)NO
7,≥ 7.00,COc1cc2ncnc(Nc3ccc(F)c(Cl)c3)c2cc1NC(=O)CCCC(=O)NO
8,≥ 7.00,C[C@@H](Nc1ncnc2[nH]c(-c3ccc(NC(=O)CCNCCCCCCC(=O)NO)cc3)cc12)c1ccccc1
9,≥ 7.00,C[C@@H](Nc1ncnc2[nH]c(-c3ccc(NC(=O)CCNCCCCCC(=O)NO)cc3)cc12)c1ccccc1
10,≥ 7.00,C#Cc1cccc(Nc2ncnc3cc(OC)c(NC(=O)CCCCCCC(=O)NO)cc23)c1

# Target: CDK2 (human) (UniProt P24941)
# Assay: Enzyme Assay
row,pIC50,Structure (SMILES)
1,≥ 7.00,CC(C)(C)c1cnc(CSc2cnc(NC(=O)Cc3ccc(OCCCCC(=O)NO)cc3)s2)o1
2,≥ 7.00,CC(C)(C)c1cnc(CSc2cnc(NC(=O)CCCCC(=O)NO)s2)o1
3,≥ 7.00,CC(C)(C)c1cnc(CSc2cnc(NC(=O)CCCCCCC(=O)NO)s2)o1
4,≥ 7.00,CC(C)(C)c1cnc(CSc2cnc(NC(=O)CCCC(=O)NO)s2)o1
5,≥ 7.00,CC(C)(C)c1cnc(CSc2cnc(NC(=O)Cc3ccc(OCCCC(=O)NO)cc3)s2)o1
6,≥ 7.00,CC(C)(C)c1cnc(CSc2cnc(NC(=O)CCCCCC(=O)NO)s2)o1
